Results taken from patent US9795679B2, “Biodegradable compositions suitable for controlled release” (INGELL TECHNOLOGIES HOLDING B.V., priority 2011, dated 2017).
Converted amounts (≈) assume the structure as drawn.

Assay: Celecoxib solubility in PBS with Tween 80
Format: physicochemical
Conditions: PBS with 0.2% Tween 80, aqueous with cosolvent or surfactant or cyclodextrin

solubility: 100 to 200 µg/mL (≈ 262 to 524 µM)
Compound: Cc1ccc(-c2cc(C(F)(F)F)nn2-c2ccc(S(N)(=O)=O)cc2)cc1 [celecoxib]
